From ChEMBL document CHEMBL3885861, “Open TG-GATES”

Species: Rattus norvegicus
Experiment: Open TG-GATES - Regimen: Daily Repeat
Format: toxicity, organism-based, Sprague-Dawley
Parameters: regimen Daily Repeat, gender Male, age 6 weeks
Conditions: in vivo, po, route gavage; for APTT / Bas / Eos / Fbg / Ht / Lym / MCHC / MCV / Mono / Neu / RBC / Ret / WBC / Hb: tissue Blood; for KIDNEY_L / KIDNEY_R / KIDNEY_TOTAL: tissue Kidney
[1] = 20 mg/kg, 72 h, dose level Low, time 3 day
[2] = 20 mg/kg, 72 h, tissue Plasma, dose level Low, time 3 day
[3] = 20 mg/kg, […], dose level Low, time 7 day
[4] = 20 mg/kg, […], dose level Low, time 14 day
[5] = 20 mg/kg, […], dose level Low, time 28 day
[6] = 20 mg/kg, […], tissue Plasma, dose level Low, time 7 day
[7] = 20 mg/kg, […], tissue Plasma, dose level Low, time 14 day
[8] = 20 mg/kg, […], tissue Plasma, dose level Low, time 28 day
[9] = 60 mg/kg, 72 h, dose level Middle, time 3 day

Work on CCCCC1C(=O)N(c2ccccc2)N(c2ccccc2)C1=O [PHENYLBUTAZONE] yielded an APTT [1] of 16.6 s, a Bas [1] of 0% and an Eos [1] of 1%. The Fbg [1] was 220 mg/dL, the Ht [1] was 42.6% and the Lym [1] was 76.6%. For the same compound, the MCHC [1] was 33.4%, the MCV [1] was 66.3 fL and the Mono [1] was 8.4%. It also gave a Neu [1] of 14%, an RBC [1] of 643.4 x10_4/ul and a Ret [1] of 7.4%. For the same compound, the WBC [1] was 137.6 x10_2/uL, the KIDNEY_L [1] was 1 g and the KIDNEY_R [1] was 1 g. The KIDNEY_TOTAL [1] was 2 g, the ALP [2] was 895.4 IU/L and the ALT [2] was 37.2 IU/L. For the same compound, the AST [2] was 63.2 IU/L, the BUN [2] was 16 mg/dL and the CRE [2] was 0.6 mg/dL. It also gave a Ca [2] of 10.4 mg/dL, a Cl [2] of 106.4 meq/L and a DBIL [2] of 0 mg/dL. For the same compound, the GLC [2] was 195.6 mg/dL, the IP [2] was 8.1 mg/dL and the K [2] was 4.9 meq/L. The PL [2] was 170.4 mg/dL, the RALB [2] was 4 g/dL and the TBIL [2] was 0.3 mg/dL. For the same compound, the TC [2] was 86.2 mg/dL, the TG [2] was 125.8 mg/dL and the TP [2] was 6 g/dL. It also gave a gamma-GTP [2] of 1.6 IU/L, a TERMINAL_BW [3] of 263.4 g and a TERMINAL_BW [4] of 327.9 g. The TERMINAL_BW [5] was 390.6 g, the APTT [3] was 16.5 s and the Bas [3] was 0%. It also gave an Eos [3] of 0.8%, a Fbg [3] of 229.8 mg/dL and a Hb [3] of 14.3 g/dL. For the same compound, the Ht [3] was 42.8%, the Lym [3] was 85.2% and the MCHC [3] was 33.5%. The MCV [3] was 64.2 fL, the Mono [3] was 5% and the Neu [3] was 8.8%. The RBC [3] was 668 x10_4/ul, the Ret [3] was 5.4% and the APTT [4] was 16.2 s. For the same compound, the Bas [4] was 0%, the Eos [4] was 0.8% and the Fbg [4] was 226.8 mg/dL. The Hb [4] was 14.8 g/dL, the Ht [4] was 44.2% and the Lym [4] was 85%. The MCHC [4] was 33.5%, the MCV [4] was 62.7 fL and the Mono [4] was 4.4%. The Neu [4] was 10%, the RBC [4] was 705.2 x10_4/ul and the Ret [4] was 5.1%. For the same compound, the WBC [4] was 153 x10_2/uL, the APTT [5] was 15.5 s and the Bas [5] was 0%. It also gave an Eos [5] of 0.4%, a Fbg [5] of 239.4 mg/dL and a Hb [5] of 15.3 g/dL. For the same compound, the Ht [5] was 45.7%, the Lym [5] was 85.4% and the MCHC [5] was 33.5%. For the same compound, the MCV [5] was 58.2 fL, the Mono [5] was 4% and the RBC [5] was 786.8 x10_4/ul. The Ret [5] was 2.4%, the WBC [5] was 138.6 x10_2/uL and the KIDNEY_L [3] was 1.2 g. It also gave a KIDNEY_R [3] of 1.2 g, a KIDNEY_TOTAL [3] of 2.4 g and a KIDNEY_L [4] of 1.3 g. The KIDNEY_R [4] was 1.3 g, the KIDNEY_TOTAL [4] was 2.6 g and the KIDNEY_L [5] was 1.4 g. The KIDNEY_R [5] was 1.4 g, the KIDNEY_TOTAL [5] was 2.7 g and the ALP [6] was 882.4 IU/L. The ALT [6] was 30 IU/L, the AST [6] was 61.4 IU/L and the BUN [6] was 18.6 mg/dL. It also gave a CRE [6] of 0.5 mg/dL, a Ca [6] of 10.5 mg/dL and a Cl [6] of 105.8 meq/L. It also gave a DBIL [6] of 0 mg/dL, a GLC [6] of 193.6 mg/dL and an IP [6] of 7.7 mg/dL. The K [6] was 5.2 meq/L, the RALB [6] was 4 g/dL and the TBIL [6] was 0.3 mg/dL. The TC [6] was 77 mg/dL, the TG [6] was 119 mg/dL and the TP [6] was 6.7 g/dL. For the same compound, the gamma-GTP [6] was 1.4 IU/L, the ALP [7] was 735.2 IU/L and the ALT [7] was 27.6 IU/L. The AST [7] was 57.2 IU/L, the BUN [7] was 20.4 mg/dL and the CRE [7] was 0.6 mg/dL. It also gave a Ca [7] of 10.8 mg/dL, a Cl [7] of 107.6 meq/L and a DBIL [7] of 0.002 mg/dL. The GLC [7] was 201 mg/dL, the IP [7] was 8.2 mg/dL and the K [7] was 5 meq/L. For the same compound, the RALB [7] was 4 g/dL, the TBIL [7] was 0.3 mg/dL and the TC [7] was 71 mg/dL. It also gave a TG [7] of 165.4 mg/dL, a TP [7] of 6.2 g/dL and a gamma-GTP [7] of 1.2 IU/L. The ALP [8] was 633.6 IU/L, the ALT [8] was 31.6 IU/L and the AST [8] was 57.8 IU/L. The BUN [8] was 21 mg/dL, the CRE [8] was 0.6 mg/dL and the Ca [8] was 10.5 mg/dL. For the same compound, the Cl [8] was 106.8 meq/L, the DBIL [8] was 0.012 mg/dL and the GLC [8] was 193.2 mg/dL. It also gave an IP [8] of 7.3 mg/dL, a K [8] of 4.3 meq/L and an RALB [8] of 4.2 g/dL. It also gave a TBIL [8] of 0.3 mg/dL, a TC [8] of 65.2 mg/dL and a TG [8] of 208.8 mg/dL. The TP [8] was 6.5 g/dL, the gamma-GTP [8] was 1.8 IU/L and the TERMINAL_BW [9] was 231.9 g. The APTT [9] was 17.3 s and the Bas [9] was 0%.
